Structures are written as SMILES. pIC50: −log10 of the molar value. Some results are limits rather than exact numbers.

The target of one test is T1, Human Factor D (Homo sapiens, UniProt P00746).
T1 construct: purified from human serum; purchased Complement Technology, Inc; host or cells: human serum (natural protein, not recombinant)
T1 sequence (P00746 26-253): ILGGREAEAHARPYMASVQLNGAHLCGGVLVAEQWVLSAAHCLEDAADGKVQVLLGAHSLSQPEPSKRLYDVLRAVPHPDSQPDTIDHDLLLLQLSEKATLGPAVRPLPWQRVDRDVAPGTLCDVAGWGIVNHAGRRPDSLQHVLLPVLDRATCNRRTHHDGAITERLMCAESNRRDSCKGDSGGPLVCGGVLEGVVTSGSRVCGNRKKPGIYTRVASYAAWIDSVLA
The test can be described thus: Human Factor D Assay. It is filed as biochemical. The following applies: Human Factor D 80 nM, substrate Z-L-Lys-SBzl, assay of Example 3; read-out: IC50 (Stars). The method, boiled down: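 Serum-purified human factor D (80 nM final) preincubated 5 min at room temperature with test compound in 50 mM Tris, 1M NaCl, pH 7.5. Z-L-Lys-SBzl substrate and DTNB then added, each at 100 μM final. IC50 from nonlinear regression of reaction rate against compound concentration.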
As a reminder, the pIC50 is −log10 of the IC50, conventionally taken in molar units. Turning to `CC(=O)c1nn(CC(=O)N2[C@H](C(=O)NCCc3cc(Cl)ccc3Cl)C[C@@]3(C)C[C@@H]23)c2c(C)cc(-c3cnc(C)nc3)cc12` [Compound 4, (1R,3S,5R)-2-(2-(3-Acetyl-7-methyl-5-(2-methylpyrimidin-5-yl)-1H-indazol-1-yl)acetyl)-N-(2,5-dichlorophenethyl)-5-methyl-2-azabicyclo[3.1.0]hexane-3-carboxamide], the negative logarithm of the IC50 (pIC50) is more than 6.00.
The same measure, in the same setting: as for `CC(=O)c1nn(CC(=O)N2[C@H](C(=O)Nc3cccc(C(F)(F)F)c3F)C[C@@]3(C)C[C@@H]23)c2ccc(-c3cnc4cc(C)nn4c3)cc12` [Compound 25, (1R,3S,5R)-2-(2-(3-Acetyl-5-(2-methylpyrazolol[1,5-A]pyrimidin-6-yl)-1H-indazol-1-yl)acetyl)-N-(2-fluoro-3-(trifluoromethyl)phenyl)-5-methyl-2-azabicyclo[3.1.0]hexane-3-carboxamide], the figure is more than 6.00; as for `CC(=O)c1nn(CC(=O)N2[C@H](C(=O)NCCc3ccc(F)cc3)C[C@@]3(C)C[C@@H]23)c2c(C)cc(-c3cnc(C)nc3)cc12` [Compound 2, (1R,3S,5R)-2-(2-(3-Acetyl-7-methyl-5-(2-methylpyrimidin-5-yl)-1H-indazol-1-yl)acetyl)-N-(4-fluorophenethyl)-5-methyl-2-azabicyclo[3.1.0]hexane-3-carboxamide], more than 6.00.
Same read-out and setting: as for `CC(=O)c1nn(CC(=O)N2[C@H](C(=O)N[C@@H](C)[C@H]3CC3(Cl)Cl)C[C@@]3(C)C[C@@H]23)c2ccc(-c3cnc(C)nc3)cc12` [Compound 26, (1R,3S,5R)-2-(2-(3-acetyl-5-(2-methylpyrimidin-5-yl)-1H-indazol-1-yl)acetyl)-N-((S)-1-((R)-2,2-dichlorocyclo-propyl)ethyl)-5-methyl-2-azabicyclo[3.1.0] hexane-3-carboxamide], the figure is more than 6.00.

Still in this test, the particulars now being: Human Factor D 80 nM, substrate Z-L-Lys-SBzl; Table 2; read-out: IC50 (Stars).
For `CCCCC(NC(=O)[C@@H]1C[C@@]2(C)C[C@H]2N1C(=O)Cn1nc(C(C)=O)c2cc(-c3cnc(C)nc3)cc(C)c21)C(F)(F)F` (stereo partly drawn) [Compound 88, (1R,3S,5R)-2-{2-[3-acetyl-7-methyl-5-(2-methylpyrimidin-5-yl)indazol-1-yl]acetyl}-5-methyl-N-(1,1,1-trifluorohexan-2-yl)-2-azabicyclo[3.1.0]hexane-3-carboxamide], the pIC50 is more than 6.00.
Still for that read-out and setting: for `CC(=O)c1nn(CC(=O)N2[C@H](C(=O)N[C@@H](C)C(F)(F)F)C[C@@]3(C)C[C@@H]23)c2c(C)cc(-c3cnc(C)nc3)cc12` [Compound 153, (1R,3S,5R)-2-{2-[3-acetyl-7-methyl-5-(2-methylpyrimidin-5-yl)indazol-1-yl]acetyl}-5-methyl-N-[(2S)-1,1,1-trifluoropropan-2-yl]-2-azabicyclo[3.1.0]hexane-3-carboxamide] the value was more than 6.00; for `CC(=O)c1nn(CC(=O)N2[C@H](C(=O)NCCC3CCC3)C[C@@]3(C)C[C@@H]23)c2c(C)cc(-c3cnc(C)nc3)cc12` [Compound 104, (1R,3S,5R)-2-{2-[3-acetyl-7-methyl-5-(2-methylpyrimidin-5-yl)indazol-1-yl]acetyl}-N-(2-cyclobutylethyl)-5-methyl-2-azabicyclo[3.1.0]hexane-3-carboxamide], more than 6.00; for `CC(=O)c1nn(CC(=O)N2[C@H](C(=O)Nc3nc(C(F)(F)F)ccc3C)C[C@@]3(C)C[C@@H]23)c2c(C)cc(-c3cnc4cc(CO)nn4c3)cc12` [Compound 227, (1R,3S,5R)-2-(2-(3-acetyl-5-(2-(hydroxymethyl)pyrazolo[1,5-a]pyrimidin-6-yl)-7-methyl-1H-indazol-1-yl)acetyl)-5-methyl-N-(3-methyl-6-(trifluoromethyl)pyridin-2-yl)-2-azabicyclo[3.1.0]hexane-3-carboxamide], more than 6.00.
Still for that read-out and setting: as for `CC(=O)c1cn(CC(=O)N2[C@H](C(=O)Nc3nc(C(F)(F)F)ccc3Cl)C[C@@]3(C)C[C@@H]23)c2c(C)cc(-c3cnc(C)nc3)cc12` [Compound 233, (1R,3S,5R)-2-(2-(3-acetyl-7-methyl-5-(2-methylpyrimidin-5-yl)-1H-indol-1-yl)acetyl)-N-(3-chloro-6-(trifluoromethyl)pyridin-2-yl)-5-methyl-2-azabicyclo[3.1.0]hexane-3-carboxamide], the figure is more than 6.00; as for `CC(=O)c1nn(CC(=O)N2[C@H](C(=O)NCCc3ccn(C)n3)C[C@@]3(C)C[C@@H]23)c2c(C)cc(-c3cnc(C)nc3)cc12` [Compound 103, (1R,3S,5R)-2-{2-[3-acetyl-7-methyl-5-(2-methylpyrimidin-5-yl)indazol-1-yl]acetyl}-5-methyl-N-[2-(1-methylpyrazol-3-yl)ethyl]-2-azabicyclo[3.1.0]hexane-3-carboxamide], more than 6.00; as for `CC(=O)c1cn(CC(=O)N2[C@H](C(=O)Nc3nc(C(F)(F)F)ccc3C)C[C@@]3(C)C[C@@H]23)c2c(C)cc(-c3cnc(CF)nc3)cc12` [Compound 220, (1R,3S,5R)-2-(2-(3-acetyl-5-(2-(fluoromethyl)pyrimidin-5-yl)-7-methyl-1H-indol-1-yl)acetyl)-5-methyl-N-(3-methyl-6-(trifluoromethyl)pyridin-2-yl)-2-azabicyclo[3.1.0]hexane-3-carboxamide], more than 6.00.
Still for that read-out and setting: as for `CC(=O)c1cn(CC(=O)N2[C@H](C(=O)Nc3nc(OC(F)(F)F)ccc3C)C[C@@]3(C)C[C@@H]23)c2c(C)cc(-c3cnc4cc(C)nn4c3)cc12` [Compound 206, (1R,3S,5R)-2-(2-(3-acetyl-7-methyl-5-(2-methylpyrazolo[1,5-a]pyrimidin-6-yl)-1H-indol-1-yl)acetyl)-5-methyl-N-(3-methyl-6-(trifluoromethoxy)pyridin-2-yl)-2-azabicyclo[3.1.0]hexane-3-carboxamide], the figure is more than 6.00; as for `CC(=O)c1nn(CC(=O)N2[C@H](C(=O)NC(C)Cc3cccs3)C[C@@]3(C)C[C@@H]23)c2c(C)cc(-c3cnc(C)nc3)cc12` (stereo partly drawn) [Compound 182, (1R,3S,5R)-2-{2-[3-acetyl-7-methyl-5-(2-methylpyrimidin-5-yl)indazol-1-yl]acetyl}-5-methyl-N-[1-(thiophen-2-yl)propan-2-yl]-2-azabicyclo[3.1.0]hexane-3-carboxamide], more than 6.00; as for `CC(=O)c1cn(CC(=O)N2[C@H](C(=O)Nc3nc(Br)ccc3C)C[C@@]3(C)C[C@@H]23)c2c(C)cc(-c3cnc4cc(C)nn4c3)cc12` [Compound 198, (1R,3S,5R)-2-(2-(3-acetyl-7-methyl-5-(2-methylpyrazolo[1,5-a]pyrimidin-6-yl)-1H-indol-1-yl)acetyl)-N-(6-bromo-3-methylpyridin-2-yl)-5-methyl-2-azabicyclo[3.1.0]hexane-3-carboxamide], more than 6.00.
In the case of `CC(=O)c1nn(CC(=O)N2[C@H](C(=O)Nc3cc(C)cc(Br)n3)C[C@@]3(C)C[C@@H]23)c2c(C)cc(-c3cnc(CO)nc3)cc12` [Compound 93, (1R,3S,5R)-2-(2-(3-acetyl-5-(2-(hydroxymethyl)pyrimidin-5-yl)-7-methyl-1H-indazol-1-yl)acetyl)-N-(6-bromo-4-methylpyridin-2-yl)-5-methyl-2-azabicyclo[3.1.0]hexane-3-carboxamide], the negative logarithm of the IC50 (pIC50) was more than 6.00.
Same read-out and setting: for `CC(=O)c1nn(CC(=O)N2[C@H](C(=O)N[C@H]3CCCCC34OCCO4)C[C@@]3(C)C[C@@H]23)c2c(C)cc(-c3cnc(C)nc3)cc12` (single isomer, unassigned) [Compound 135] the value was 5.00 to 6.00; for `CC(=O)c1nn(CC(=O)N2C[C@H]3C[C@H]3[C@H]2C(=O)Nc2nc(Br)ccc2C)c2ccc(-c3cnc(CO)nc3)cc12` [Compound 63, (1R,2S,5S)-3-(2-(3-acetyl-5-(2-(hydroxymethyl)pyrimidin-5-yl)-1H-indazol-1-yl)acetyl)-N-(6-bromo-3-methylpyridin-2-yl)-3-azabicyclo[3.1.0]hexane-2-carboxamide], more than 6.00.
Same read-out and setting: for `CC(=O)c1nn(CC(=O)N2[C@H](C(=O)NC(C)Cc3ccccc3F)C[C@@]3(C)C[C@@H]23)c2c(C)cc(-c3cnc(C)nc3)cc12` (stereo partly drawn) [Compound 186, (1R,3S,5R)-2-{2-[3-acetyl-7-methyl-5-(2-methylpyrimidin-5-yl)indazol-1-yl]acetyl}-N-[1-(2-fluorophenyl)propan-2-yl]-5-methyl-2-azabicyclo[3.1.0]hexane-3-carboxamide] the value was more than 6.00; for `CC(=O)c1nn(CC(=O)N2[C@H](C(=O)Nc3ccc(F)c(Br)n3)C[C@@]3(C)C[C@@H]23)c2c(C)cc(-c3cnc(C(C)O)nc3)cc12` (stereo partly drawn) [Compound 125, (1R,3S,5R)-2-(2-(3-acetyl-5-(2-(1-hydroxyethyl)pyrimidin-5-yl)-7-methyl-11H-indazol-1-yl)acetyl)-N-(6-bromo-5-fluoropyridin-2-yl)-5-methyl-2-azabicyclo[3.1.0]hexane-3-carboxamide], more than 6.00.
Still for that read-out and setting: as for `CC(=O)c1nn(CC(=O)N2[C@H](C(=O)Nc3nc(Br)ccc3C)C[C@@]3(C)C[C@@H]23)c2c(C)cc(-c3cnc(C(C)(C)O)nc3)cc12` [Compound 41, (1R,3S,5R)-2-(2-(3-acetyl-5-(2-(2-hydroxypropan-2-yl)pyrimidin-5-yl)-7-methyl-1H-indazol-1-yl)acetyl)-N-(6-bromo-3-methylpyridin-2-yl)-5-methyl-2-azabicyclo[3.1.0]hexane-3-carboxamide], the figure is more than 6.00; as for `CC(=O)c1cn(CC(=O)N2[C@H](C(=O)Nc3nc(C(F)(F)F)ccc3C)C[C@@]3(C)C[C@@H]23)c2c(C)cc(-c3cnc4cc(C)nn4c3)cc12` [Compound 199, (1R,3S,5R)-2-(2-(3-acetyl-7-methyl-5-(2-methylpyrazolo[1,5-a]pyrimidin-6-yl)-1H-indol-1-yl)acetyl)-5-methyl-N-(3-methyl-6-(trifluoromethyl)pyridin-2-yl)-2-azabicyclo[3.1.0]hexane-3-carboxamide], more than 6.00.
